Test results: patent publication US12495798B2, “Nicotinamide compound and herbicidal composition comprising compound” (KOREA RESEARCH INSTITUTE OF CHEMICAL TECHNOLOGY, priority 2019, dated 2025)

What was measured:
Type in all cases: in vivo
sorghum = experiment: Herbicidal activity test against upland field weeds (foliar treatment test); conditions: Sorghum, 50 g ai/ha, scale 0-100
In short: (§1)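 Visual 0–100 control ratings relative to untreated plants, taken 14 (or 21) days after spraying foliage at 50 or 75 g a.i./ha. Spray solution: 50% acetone with 0.1% Tween-20; plants kept in greenhouse at 30±5 °C, 14 h light/10 h dark.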

quack grass = experiment: as above; set-up: key to Foliar treatment herbicidal activity, quack grass: 0 (no control); 100 (complete control); conditions: 50 g ai/ha, scale 0-100
In short: as §1

indian jointvetch = experiment: as above; set-up: key to Foliar treatment herbicidal activity, Indian jointvetch: 0 (no control); 100 (complete control); conditions: 50 g ai/ha, scale 0-100
In short: as §1

velvetleaf [1] = experiment: as above; set-up: key to Foliar treatment herbicidal activity, velvet leaf: 0 (no control); 100 (complete control); conditions: 50 g ai/ha; for pest or weed control at 50 g/ha: Abutilon theophrasti, scale 0-100, read-out: Foliar treatment herbicidal activity, velvet leaf
In short: as §1

cocklebur [2] = experiment: as above; conditions: Xanthium strumarium, 50 g ai/ha, scale 0-100
In short: as §1

bindweed = experiment: as above; conditions: 50 g ai/ha, scale 0-100
In short: as §1

barnyard grass = experiment: Herbicidal activity test against upland field weeds (soil treatment test); set-up: key to Soil treatment herbicidal activity, barnyard grass: 0 (no control); 100 (complete control); conditions: 50 g ai/ha, scale 0 (no control) to 100 (complete control); for pest or weed control at 50 g/ha: Echinochloa crus-galli
In short: (§2)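 Weed control scored visually on a 0 (none) to 100 (complete) scale versus untreated pots at 14 or 21 days in greenhouse (30±5 °C, 14 h light). Test compounds, 50 or 75 g a.i./ha in 50% acetone/0.1% Tween-20, hand-sprayed onto soil one day post-sowing.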

velvetleaf [3] = experiment: as above; set-up: key to Soil treatment herbicidal activity, velvet leaf: 0 (no control); 100 (complete control); conditions: 50 g ai/ha, scale 0 (no control) to 100 (complete control); for pest or weed control at 50 g/ha: Abutilon theophrasti, read-out: Soil treatment herbicidal activity, velvet leaf
In short: as §2

cocklebur [4] = experiment: as above; set-up: key to Soil treatment herbicidal activity, Cocklebur: 0 (no control); 100 (complete control); conditions: 50 g ai/ha, scale 0 (no control) to 100 (complete control)
In short: as §2

corn = experiment: Phytotoxicity test for field crops (soil treatment test); set-up: key: 0 (no harm); 9 (complete withered)
In short: (§3)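 Visual phytotoxicity grading (0 no harm to 9 complete withering, relative to untreated control) 10 and 20 days after a pre-emergence soil spray applied one day post-sowing. Rates 19˜300 g a.i./ha in 33% acetone/0.1% Tween-20; sterilized soil pH 6.1, fertilized; greenhouse 30±5° C, 14/10 h photoperiod.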

cotton = experiment: as above; set-up: key: 0 (no harm); 9 (complete withered)
In short: as §3

rice = experiment: as above; set-up: key: 0 (no harm); 9 (complete withered)
In short: as §3

soybean = experiment: as above; set-up: key: 0 (no harm); 9 (complete withered)
In short: as §3

wheat = experiment: as above; set-up: key: 0 (no harm); 9 (complete withered)
In short: as §3

[5] = 50 g ai/ha, Corn (10 days after treatment)
[6] = 50 g ai/ha, Corn (20 days after treatment)
[7] = 100 g ai/ha, Corn (10 days after treatment)
[8] = 100 g ai/ha, Corn (20 days after treatment)
[9] = 50 g ai/ha, Cotton (10 days after treatment)
[10] = 50 g ai/ha, Cotton (20 days after treatment)
[11] = 100 g ai/ha, Cotton (10 days after treatment)
[12] = 100 g ai/ha, Cotton (20 days after treatment)
[13] = 50 g ai/ha, Rice (10 days after treatment)
[14] = 50 g ai/ha, Rice (20 days after treatment)
[15] = 100 g ai/ha, Rice (10 days after treatment)
[16] = 100 g ai/ha, Rice (20 days after treatment)
[17] = 50 g ai/ha, Soybean (10 days after treatment)
[18] = 50 g ai/ha, Soybean (20 days after treatment)
[19] = 100 g ai/ha, Soybean (10 days after treatment)
[20] = 100 g ai/ha, Soybean (20 days after treatment)
[21] = 50 g ai/ha, Wheat (10 days after treatment)
[22] = 50 g ai/ha, Wheat (20 days after treatment)
[23] = 100 g ai/ha, Wheat (10 days after treatment)
[24] = 100 g ai/ha, Wheat (20 days after treatment)

SMILES	plant injury at 50 g/ha (sorghum)	pest or weed control at 50 g/ha (cocklebur [2])	pest or weed control at 50 g/ha (bindweed)	Soil treatment herbicidal activity, Cocklebur (cocklebur [4])	Soil treatment phytotoxicity, Corn (corn; [5])	Soil treatment phytotoxicity, Corn (corn; [6])	Soil treatment phytotoxicity, Corn (corn; [7])	Soil treatment phytotoxicity, Corn (corn; [8])	Soil treatment phytotoxicity, Cotton (cotton; [9])	Soil treatment phytotoxicity, Cotton (cotton; [10])	Soil treatment phytotoxicity, Cotton (cotton; [11])	Soil treatment phytotoxicity, Cotton (cotton; [12])	Soil treatment phytotoxicity, Rice (rice; [13])	Soil treatment phytotoxicity, Rice (rice; [14])	Soil treatment phytotoxicity, Rice (rice; [15])	Soil treatment phytotoxicity, Rice (rice; [16])	Soil treatment phytotoxicity, Soybean (soybean; [17])	Soil treatment phytotoxicity, Soybean (soybean; [19])	Soil treatment phytotoxicity, Soybean (soybean; [20])	Soil treatment phytotoxicity, Wheat (wheat; [21])	other results
Cn1nnc(COCc2nc(C(F)F)ccc2C(=O)Nc2nnnn2C)n1 [Compound No. 2-84, 6-(difluoromethyl)-N-(1-methyl-1H-tetrazol-5-yl)-2-(((2-methyl-2H-tetrazol-5-yl)methoxy)methyl)nicotinamide]	90%	95%	60%	0	0	0	1	0	0	6	3	7	5	3	6	7	0	0	0	0	Foliar treatment herbicidal activity, quack grass (quack grass): 0; pest or weed control at 50 g/ha (indian jointvetch): 70%; pest or weed control at 50 g/ha (velvetleaf [1]): 98%; pest or weed control at 50 g/ha (barnyard grass): 70%; Soil treatment herbicidal activity, velvet leaf (velvetleaf [3]): 100; Soil treatment phytotoxicity, Soybean (soybean; [18]): 0; Soil treatment phytotoxicity, Wheat (wheat; [22]): 0; Soil treatment phytotoxicity, Wheat (wheat; [23]): 0
Cn1nnc(COCc2nc(C(F)(F)F)ccc2C(=S)Nc2nnnn2C)n1 [Compound No. 2-106, N-(1-methyl-1H-tetrazol-5-yl)-2-(((2-methyl-2H-tetrazol-5-yl)methoxy)methyl)-6-(trifluoromethyl)pyridin-3-carbothioamide]	70%	95%	40%	100	0	0	0	0	4	6.5	5	8	8	8	9	9	0	0	0	0	Foliar treatment herbicidal activity, quack grass (quack grass): 0; pest or weed control at 50 g/ha (indian jointvetch): 80%; pest or weed control at 50 g/ha (velvetleaf [1]): 95%; Soil treatment herbicidal activity, barnyard grass (barnyard grass): 100; Soil treatment herbicidal activity, velvet leaf (velvetleaf [3]): 100; Soil treatment phytotoxicity, Soybean (soybean; [18]): 0; Soil treatment phytotoxicity, Wheat (wheat; [23]): 0; Soil treatment phytotoxicity, Wheat (wheat; [24]): 1
Cn1nnnc1COCc1nc(C(F)(F)F)ccc1C(=O)Nc1nnnn1C [Compound No. 1-61, N-(1-methyl-1H-tetrazol-5-yl)-2-(((1-methyl-1H-tetrazol-5-yl)methoxy)methyl)-6-(trifluoromethyl)nicotinamide]	20%	98%	70%	0	0	0	0	0	1	1	2	2	0	1	1	6	0	3	6	0	Foliar treatment herbicidal activity, quack grass (quack grass): 0; Foliar treatment herbicidal activity, Indian jointvetch (indian jointvetch): 100; Foliar treatment herbicidal activity, velvet leaf (velvetleaf [1]; scale 0-100): 100; pest or weed control at 50 g/ha (barnyard grass): 20%; pest or weed control at 50 g/ha (velvetleaf [3]): 90%; Soil treatment phytotoxicity, Wheat (wheat; [22]): 0; Soil treatment phytotoxicity, Wheat (wheat; [23]): 0; Soil treatment phytotoxicity, Wheat (wheat; [24]): 0
Cn1nnnc1COc1nc(C(F)(F)F)ccc1C(=S)Nc1nnnn1C [Compound No. 1-43, N-(1-methyl-1H-tetrazol-5-yl)-2-((1-methyl-1H-tetrazol-5-yl)methoxy)-6-(trifluoromethyl)pyridin-3-carbothioamide]	60%	90%	70%	0	0	0	1	0	0	1	1	2	5	5	7	9	0	0	0	0	pest or weed control at 50 g/ha (quack grass): 30%; pest or weed control at 50 g/ha (indian jointvetch): 30%; pest or weed control at 50 g/ha (velvetleaf [1]): 90%; Soil treatment herbicidal activity, barnyard grass (barnyard grass): 0; pest or weed control at 50 g/ha (velvetleaf [3]): 90%; Soil treatment phytotoxicity, Soybean (soybean; [18]): 0; Soil treatment phytotoxicity, Wheat (wheat; [22]): 0; Soil treatment phytotoxicity, Wheat (wheat; [23]): 3; Soil treatment phytotoxicity, Wheat (wheat; [24]): 3
